For series [1], the system named is DoHH2 (lymphoma) cell line. In words: DiOC6(3) flow evaluation of cell viability and apoptosis, DoHH2 (lymphoma) cell line. The series is classed as cell-based, human. The conditions noted are these: for Percentage Cell Viability: DoHH2 cells, 50 μM; for cytotoxicity at 50 µM / viability at 50 µM: Homo sapiens, DOHH-2, DoHH2 cells. Here is the method:
DiOC6(3) flow evaluation of cell viability and levels of apoptosis was carried out at 10 and 50 μm concentrations. For each entry in FIG. 1, % apoptosis is on the left and % viable is on the right.
Measurement of Mitochondrial Membrane Potential depolarisation and mitochondrial permeability transition (MPT). Cells were incubated for 20 minutes at 37° C. in the dark with the cationic lipophillic (amphipathic) probe 3,3′-dihexyloxacarbocyanine iodide, DiOC6(3) (80 nM), then counter stained for 10 minutes with propidium iodide (20 μg/ml). DiOC6(3) is sequestered within the mitochondrial matrix due to the inner membrane potential (Δψm), according to the Nernst equation, dissipation leading to a reduction in mitochondrial retention and decreased cellular DiOC6(3) fluorescence. Collapse of Δψm was prevented by incubating cells for 30 minutes with 50 μM bongkrekic acid. Events with increased propidium iodide fluorescence were subtracted, by gating, from the DiOC6(3) histograms to eliminate dead cells, with loss of plasma membrane integrity. Dose-response curves used the calculated proportion of DiOC6(3)low, cells as the dependent variable on the ordinate. To measure MPT directly, cells were incubated with 1 μM calcein AM for 30 minutes, followed by 1 mM […] cobalt. Cobalt quenches calcein fluorescence, but cannot traverse an intact inner mitochondrial membrane to enter the mitochondrial matrix, to which calcein equilibrates. Opening of the PTPC allows cobalt to enter, reducing calcein fluorescence.
The Lymphoma cell line (DoHH2) was treated with PK11195 and various compounds of the invention at doses of 10 and 50 μmol concentrations. Levels of cell viability and apoptosis were measured by DiOC6 flow evaluation. DiOC6 is a fluorescent dye which acts as a surrogate marker of mitochondrial depolarisation. Uptake of DiOC6 and consequent fluorescence is a measure of opening of the permeability transition pore complex (PTPC).
The following tables set out % viability and % apoptosis results seen for treatment of DoHH2 cells with certain compounds of the invention at a dosage of 50 μM, in comparison with untreated cells. The assay procedure used was as described above in respect of “Treatment of DoHH 2 (Lymphoma) Cell Line”.

The subject of series [2] is DoHH2 cells. The experiment in a line: Superoxide purging with MnTBAP, apoptosis in DoHH2 cells. It is filed as cell-based, human. The conditions noted are these: with and without ROS scavenger MnTBAP. Here is the method: For each entry in FIG. 2, DAPI viable is on the left and DAPI non viable is on the right.
O^2-• was detected by incubating cells for 15 minutes in 5 μM dihydroethidium, which is oxidized to ethidium. To test the effect of O^2-• […] on O^2-• generation, cells were treated with 100 μM MnTBAP for 45 minutes. Hydrogen peroxide was detected by loading cells for 30 minutes with 5 μM CM-H2DCFDA, and its formation inhibited by preincubation with 500 U/ml catalase for 30 minutes. Dose-response curves for CM-H2DCFDA used the calculated proportion of CM-H2DCFDAhigh cells as the dependent variable.
DoHH2 cells were exposed to AAW-001, AAW-0014 and PK11195 in the presence and absence of the mitochondrial reactive oxygen species (ROS) scavenger MnTBAP.

The test system of series [3] is human lymphoma DoHH2 cell line xenograft. In words: DoHH2 xenograft NOD/SCID mice. It is filed as in vivo. The conditions noted are these: for mice alive at 10 weeks: cohorts of ten mice. On the procedure:
NOD/SCID mice xenografted with the human lymphoma DoHH2 cell line were treated two weeks post inoculation with the human B cell lymphoma cell line DoHH2. There were three cohorts of ten mice. For two cohorts, treatment consisted of 50 microgram intraperitoneal (IP) doses twice weekly for three weeks of PK11195 or AAW-0014, respectively. The third cohort was treated with 200 microlitres of saline twice weekly over a 3 week period. The mice were then observed for up to six weeks. All of the saline treated mice were dead due to disease at 10 weeks. […] All of the AAW-0014 treated mice were alive at 10 weeks showing less than 20% splenic involvement, including 2 mice with no detectable disease.

The mark [4] stands for this setting: average of repeats, read-out: Percentage Cell Apoptosis, Averages.
Where [5] appears, read: average of repeats, read-out: Percentage Cell Viability, Averages.
Setting [6] is: individual repeats, read-out: Percentage Cell Apoptosis.
Where [7] appears, read: 50 microgram IP twice weekly for three weeks.
The mark [8] stands for this setting: at 10 weeks, 50 microgram IP twice weekly for three weeks.
Setting [9] is: individual repeats, read-out: Percentage Cell Viability.

Where “and” joins values, the source holds several entries; their conditions need not be identical. Identical values can stand only once. Like-named read-outs stand apart in the source and are kept apart here.

Usually viability stands for the share of living cells, or the viability signal relative to a control. For `CC(C)C(=O)Nc1cc2c(c(-c3ccccc3Cl)c1)CCN(C(=O)C(F)(F)F)C2` [CO-AAW0001, N-[5-(2-chloro-phenyl)-2-(2,2,2-trifluoro-acetyl)-1,2,3,4-tetrahydro-isoquinolin-7-yl]-isobutyramide], the “Percentage Cell Viability” value in series [1] (individual repeats, listed as 1, 50 µM) is 73.8% and 67.7% and 47.9% and 62.5% and 48.0% and 52.8% and 52.9% and 48.5% and 68.4% and 65.4%. Besides, the cytotoxicity at 50 µM in series [1] (setting [4]) was found to be 52.8%. In series [1] (setting [5]), the viability at 50 µM was 59.7%.
Turning to `CC(C)C(=O)Nc1cc2ccccc2c(-c2ccccc2Cl)n1` [CO-AAW0007], the “Percentage Cell Viability” value in series [1] (individual repeats, listed as 7, 50 µM) was 63.9% and 88.2%. In addition, the cytotoxicity at 50 µM in series [1] (setting [4]) came out at 26.1%. For the same compound, the viability at 50 µM in series [1] (setting [5]) stood at 76.1%.
For the compound `CCC(C)C(=O)Nc1cc2ccccc2c(-c2ccccc2Cl)n1` (centres unmarked) [CO-AAW0008], the “Percentage Cell Viability” value in series [1] (individual repeats, listed as 8, 50 µM) was 54.1% and 81.7%. For the same compound, the values for the cytotoxicity at 50 µM in series [1] (setting [4]) and in series [1] (setting [6]) were 39.2% and 48.8%, respectively. In addition, in series [1] (setting [5]), the viability at 50 µM came to 67.9%.
In the case of `CC(C)NC(=O)c1cc2ccccc2c(-c2ccccc2Cl)n1` [CO-AAW0009], the “Percentage Cell Viability” value in series [1] (individual repeats, listed as 9, 50 µM) was 48.8% and 90.5%. The cytotoxicity at 50 µM in series [1] (setting [4]) was 32.4%. For the same compound, the viability at 50 µM in series [1] (setting [5]) worked out at 69.9%.
With `CCCCC(=O)Nc1nc2c(c(-c3ccccc3Cl)n1)CN(Cc1ccccc1)CC2` [CO-AAW00014, pentanoic acid [6-benzyl-4-(2-chloro-phenyl)-5,6,7,8-[4,3-d]pyrimidin-2-yl]-amide], the “Percentage Cell Viability” value in series [1] (individual repeats, listed as 14, 50 µM) is 68.8% and 42.3% and 39.4% and 65.8% and 51.8% and 54.3% and 49.6%. Moreover, the cytotoxicity at 50 µM in series [1] (setting [4]) came out at 65.5%. For the same compound, the viability at 50 µM in series [1] (setting [5]) was found to be 53.1%. In addition, in series [2], the “ability to induce apoptosis in the presence of MnTBAP” value is on record as “inhibited by MnTBAP”. Besides, in series [3] (setting [7]), the drug related toxicities result was “No major drug related toxicities were observed” and the “mice alive at 10 weeks” value was “All”. Further, the splenic involvement entry in series [3] (setting [8]) is reported as “less than 20%”. For the same compound, the “mice with no detectable disease” value in series [3] (at 10 weeks, of ten mice) amounted to 2.
As to `O=C(Nc1nc2c(c(-c3ccccc3Cl)n1)CN(Cc1ccccc1)CC2)c1cccc(Cl)c1Cl` [CO-AAW00016, N-[6-benzyl-4-(2-chlorophenyl)-5H,6H,7H,8H-pyrido[4,3-d]pyrimidin-2-yl]-2,3-dichlorobenzamide], the “Percentage Cell Viability” value in series [1] (individual repeats, listed as 16, 50 µM) came to 76.5%. For the same compound, the cytotoxicity at 50 µM was 33.5% in series [1] (setting [4]) and 33.4% in series [1] (setting [6]). Also, the results for the viability at 50 µM in series [1] (setting [5]) and in series [1] (setting [9]) were 77.5% and 78.5%, respectively.
Turning to `CCCC(=O)N1CCc2c(cc([N+](=O)[O-])cc2-c2ccccc2Cl)C1` [CO-AAW00017, 1-[5-(2-chlorophenyl)-7-nitro-1,2,3,4-tetrahydroisoquinolin-2-yl]butan-1-one], the “Percentage Cell Viability” value in series [1] (individual repeats, listed as 17, 50 µM) was found to be 68.4%. Further, the values for the cytotoxicity at 50 µM in series [1] (setting [4]) and in series [1] (setting [6]) were 49.2% and 43%, respectively. Moreover, the viability at 50 µM in series [1] (setting [5]) was 71.3%; in series [1] (setting [9]) it was 74.2%.
In the case of `CC(C)NC(=O)c1cc2ccccc2c(-c2c(Cl)cccc2Cl)n1` [CO-AAW00018], the “Percentage Cell Viability” value in series [1] (individual repeats, listed as 18, 50 µM) is on record as 79.2%. Moreover, the cytotoxicity at 50 µM in series [1] (setting [4]) is 24.1%; in series [1] (setting [6]), 25.6%. The viability at 50 µM amounted to 82% in series [1] (setting [5]) and 84.8% in series [1] (setting [9]).
Turning to `CNC(=O)c1cc2ccccc2c(-c2ccccc2Cl)n1` [CO-AAW00020], the “Percentage Cell Viability” value in series [1] (individual repeats, listed as 20, 50 µM) was determined as 78.7%. Besides, the cytotoxicity at 50 µM was determined as 17.3% in series [1] (setting [4]) and 17.1% in series [1] (setting [6]). The viability at 50 µM was found to be 75.7% in series [1] (setting [5]) and 72.7% in series [1] (setting [9]).
For `CCCCNC(=O)c1cc2ccccc2c(-c2ccccc2Cl)n1` [CO-AAW00022], the “Percentage Cell Viability” value in series [1] (individual repeats, listed as 22, 50 µM) is listed as 19.4%. For the same compound, the figures for the cytotoxicity at 50 µM in series [1] (setting [4]) and in series [1] (setting [6]) were 65.4% and 62.9%, respectively. For the same compound, the viability at 50 µM in series [1] (setting [5]) is 28.4%; in series [1] (setting [9]), 37.4%.
Regarding `CC(C)C(=O)Nc1cc2c(c(-c3ccccc3Cl)c1)CCN(C(=O)c1ccccc1)C2` [CO-AAW00025, N-[2-Benzoyl-5-(2-chloro-phenyl)-1,2,3,4-tetrahydroisoquinolin-7-yl]2-methylpropanamide], the “Percentage Cell Viability” value in series [1] (individual repeats, listed as 25, 50 µM) is 56.3% and 78.8%. Also, the cytotoxicity at 50 µM in series [1] (setting [4]) was 15.4%; in series [1] (setting [6]) it was 19.7%. Further, in series [1] (setting [5]), the viability at 50 µM is 67.6%.
Turning to `CCCCC(=O)Nc1cc2c(c(-c3ccccc3Cl)c1)CCN(C(=O)C(F)(F)F)C2` [CO-AAW00030, pentanoic acid [5-(2-chlorophenyl)-2-(2,2,2-trifluoro-acetyl)-1,2,3,4-tetrahydro-isoquinolin-7-yl]amide], the cytotoxicity at 50 µM in series [1] (setting [4]) and in series [1] (setting [6]) was 61.2% each time. Also, the viability at 50 µM in series [1] (setting [5]) and in series [1] (setting [9]) was 64.3% in each case.
For `CCC(C)N(C)C(=O)c1cc2ccccc2c(-c2ccccc2Cl)n1` (centres unmarked) [PK11195, 1-(2-chlorophenyl)-N-methyl-N-(1-methylpropyl)-3-isoquinolinecarboxamide, reference compound], the “disease on splenic assessment on culling” value in series [3] (setting [8]) was “moderate levels of disease”. Besides, the “mice alive at 10 weeks” value in series [3] (setting [7]) is “Five of the ten”.
